Results published in paper PMC9662648 (Journal of the American Chemical Society, 2022).

Test system: SARS-CoV-2 (USA-WA1/2020/NR-52281)
Assay: Live native virus infection of A549-hACE2 versus A549-hACE2/TMPRSS2 cells
Assay type: cell-based
Details: virus 1 h, then compound

CCOC(=O)C=CC(CC1CCNC1=O)NC(=O)C(Cc1ccccc1)NC(=O)C(N)Cc1ccccc1 (centres unmarked) [SM141]
efficacy against live virus upon overexpression of TMPRSS2: only a partial loss in efficacy

CCOC(=O)C=CC(CC1CCNC1=O)NC(=O)C(Cc1ccccc1)NC(=O)C(Cc1ccc(F)cc1)NC(=O)OC(C)(C)C (centres unmarked) [SM142]
efficacy against live virus upon overexpression of TMPRSS2: only a partial loss in efficacy
